{"source": "patent US8008525B2", "about": "“Receptor function regulating agent” (Takeda Pharmaceutical Company Limited, priority 2003, dated 2011)", "key": {"[1]": {"target": "T1, human 14273 receptor (Homo sapiens, UniProt Q5NUL3)", "T1 construct": "expressed in transfected cells", "T1 sequence (Q5NUL3 1-361)": "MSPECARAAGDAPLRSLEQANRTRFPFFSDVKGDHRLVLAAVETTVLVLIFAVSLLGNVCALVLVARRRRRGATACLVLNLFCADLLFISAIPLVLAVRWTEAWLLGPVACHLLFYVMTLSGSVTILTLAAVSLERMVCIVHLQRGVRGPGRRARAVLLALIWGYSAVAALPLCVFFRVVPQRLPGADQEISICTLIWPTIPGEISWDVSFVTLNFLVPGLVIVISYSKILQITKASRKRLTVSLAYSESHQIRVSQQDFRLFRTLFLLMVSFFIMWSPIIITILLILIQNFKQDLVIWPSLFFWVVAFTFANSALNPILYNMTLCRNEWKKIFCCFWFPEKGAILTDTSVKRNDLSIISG", "assay": "Test Example 1: regulating effect for 14273 receptor function (agonist effect), change in intracellular calcium level by FLIPR", "type": "cell-based", "details": "CHO cell line (No. 104) expressing human 14273 receptor, change of fluorescent intensity after 35 seconds", "protocol": "CHO cell lines (No. 104) in which a human 14273 receptor has expressed was diluted to contain 3×10^4/100 μl cells, and dispensed in Black walled 96-well plate (Costar) at a density of 100 μl/well, followed by culturing overnight in a CO2 incubator. A change in intracellular calcium level was measured using FLIPR (Molecular Device). The method is described as below. 50 μg of Fluo-3AM (DOJIN) was dissolved in 21 μl of DMSO (DOJIN) and an equal volume of 20% pluronic acid (Molecular Probes) was added thereto, followed by mixing them. The mixture was added to 10.6 ml of the assay buffer [which is prepared by adding 10 ml of a solution, which is prepared by adding 20 ml of 1 M HEPES (pH 7.4, DOJIN) to 1 L of HBSS (Invitrogen), dissolving 710 mg of probenecid (Sigma) in 5 ml of 1 N NaOH, and further adding 5 ml of the above-mentioned HBSS/HEPES solution and mixing it.] supplemented with 105 μl of fetal bovine serum to prepare a fluorescent dye solution. The medium of the cell plate was removed, the fluorescent dye solution was dispensed in 100 μl each per well. The culturing was performed in a CO2 incubator for 1 hour to incorporate the fluorescent dye into the cells. The cells after culturing were washed with the assay buffer. The compounds to be added to the cells were diluted to each concentration with a buffer solution to which CHAPS (DOJIN) was added in 0.015%, and dispensed in a plate for the test sample. Following the pretreatment above, a change in intracellular calcium level after addition of the compound was determined with FLIPR to investigate the agonist effect. An EC50 value was calculated from dose-reaction curve using the change of fluorescent intensity after 35 seconds from the reaction initiation."}, "[2]": {"test_system": "3T3-L1 adipocytes", "assay": "Test Example 2: suppression of lipolysis (glycerol production) in differentiated 3T3-L1 adipocytes", "type": "cell-based, mouse", "details": "treated 45 minutes, isoproterenol 1×10^−10 M, compound 40 μM and 20 μM (FIG. 14)", "protocol": "Influence on lipolysis was investigated with use of mouse fibroblast-like cell line 3T3-L1 cells that can differentiate to adipocyte. […] The 3T3-L cells were plated on a plate and cultured to become confluent. The cells were then treated for 48 hours in the medium containing 10 μg/ml of insulin, 0.5 mM of 3-isobutyl-1-methylxanthine (IBMX) and 2.5 μM of dexamethasone to induce differentiation into adipocytes. The culturing was continued for further 11 days. After the 3T3-L1 cells were differentiated into adipocytes, a change in the amount of glycerol produced after lipolysis was assayed. After the cells were washed with modified Krebs-Ringer buffer, they were treated with the compounds for 45 minutes, and the supernatant was then recovered. The glycerol content in the supernatant was determined using a Free Glycerol Determination Kit (Sigma)."}, "[3]": {"target": "T1, human 14273 receptor", "assay": "Reference Example A2: reactivity of fatty acids, intracellular calcium by FLIPR in CHO-K1 cells expressing human 14273 receptor", "type": "cell-based", "details": "30 μM fatty acid; CHO-K1 cells transiently expressing human 14273; FLIPR (FIG. 1-5)", "protocol": "(§1) CHO-K1 cell line was cultured using Ham's F-12 medium (Invitrogen) containing 10% fetal bovine serum (Invitrogen), unless otherwise described. On the day before transfection was conducted, 4.5×10^5 cells were dispersed per 10 cm^2, and cultured at 37° C. for 15 hours by a CO2 incubator adjusted to a CO2 concentration of 5%. Transfection was carried out using a Lipofectamine reagent (Invitrogen) in accordance with the instruction accompanying the reagent. In the case of using a 6-well plate as culture dish, the following steps were performed. First of all, two tubes having a volume of 1.5 ml each were provided, and 100 μl of an Opti-MEM-I medium (Invitrogen) was dispensed to each of the tubes. Next, after adding 1 μg of an expression vector to one tube and adding 6 μl of the Lipofectamine reagent to the other tube, both of them were mixed, and left at rest at room temperature for 20 minutes. A mixture for transfection, in which 800 μl of the Opti-MEM-I medium was added to this solution, was added to the CHO-K1 cells previously washed using the Opti-MEM-I medium, and then the cells were cultured in the CO2 incubator for 6 hours. The cells after culturing were rinsed using PBS (Invitrogen), then detached using a 0.05% trypsin/EDTA solution (Invitrogen), and recovered through centrifugation. The number of the obtained cells was measured, and the cells were diluted to a concentration of 5×10^4 cells per 100 μl of the medium. This dilution was separately injected to a Black-walled 96-well plate (Costar) in an amount of 100 μl per well, and then the cells were incubated overnight in a CO2 incubator. To the CHO-K1 cells which transiently expressed the receptor during the transfection operation, various test samples were added, and the change in the intracellular calcium concentration during this operation was measured using FLIPR (Molecular Device). In order to measure the change in the intracellular calcium concentration with FLIPR, the following pretreatment was performed. First, Assay Buffer for washing cells was prepared in order to add a fluorescent dye Fluo3-AM (DOJIN) to the cells, or to wash cells immediately before performing the FLIPR assay. To a solution prepared by adding 20 ml of 1 M HEPES (pH 7.4) (DOJIN) to 1000 ml of HBSS (Invitrogen) (hereinafter, HBSS/HEPES solution), 10 ml of a solution prepared by dissolving 710 mg of probenecid (Sigma) in 5 ml of a 1 N NaOH solution, and then further added 5 ml of the HBSS/HEPES solution thereto was added, and this solution was used as the Assay Buffer. […] After performing the pretreatment as described above, the changes in the intracellular calcium concentration after addition of various test samples were measured using FLIPR."}, "[4]": {"target": "T2, mouse 14273 receptor (Mus musculus, UniProt Q7TMA4)", "T2 construct": "expressed in transfected cells; host or cells: CHO-K1 cells, transient transfection with Lipofectamine", "T2 sequence (Q7TMA4 1-361)": "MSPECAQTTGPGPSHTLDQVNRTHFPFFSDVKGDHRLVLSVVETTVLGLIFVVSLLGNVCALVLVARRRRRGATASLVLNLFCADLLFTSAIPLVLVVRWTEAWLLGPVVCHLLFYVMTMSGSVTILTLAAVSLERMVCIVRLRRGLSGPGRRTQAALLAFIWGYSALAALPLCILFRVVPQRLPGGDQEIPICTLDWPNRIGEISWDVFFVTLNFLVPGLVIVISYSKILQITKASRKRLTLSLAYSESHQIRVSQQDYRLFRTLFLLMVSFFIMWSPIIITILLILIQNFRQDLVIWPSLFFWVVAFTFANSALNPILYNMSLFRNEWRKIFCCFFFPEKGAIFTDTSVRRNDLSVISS", "assay": "Reference Example A2: reactivity of fatty acids, intracellular calcium by FLIPR in CHO-K1 cells expressing mouse 14273 receptor", "type": "cell-based", "details": "30 μM fatty acid; CHO-K1 cells transiently expressing mouse 14273; FLIPR (FIG. 1-5)", "protocol": "as §1"}, "[5]": {"test_system": "AtT-20 cells", "assay": "Reference Example A10: inhibitory activity of fatty acids against CRF-induced ACTH secretion from AtT-20 cells", "details": "10 nM CRF; 90 minutes; fatty acids conjugated with BSA; adhesive AtT-20 substrain (FIG. 13)"}}}
{"smiles": "O=C(O)CCc1ccc(OC2CCc3ccccc32)c(Cl)c1", "note": "(centres unmarked) [Reference Example 16, 3-Chloro-4-[(2,3-dihydro-1H-inden-1-yl)oxy]benzenepropanoic acid]", "values": [{"measurement": "EC50", "setting": "[1]", "result": "≤ 10", "unit": "µM"}, {"measurement": "amount of glycerol production increased by isoproterenol stimulation (lipolysis)", "setting": "[2]", "result": "inhibitory effect"}, {"measurement": "amount of glycerol production increased by isoproterenol stimulation (lipolysis)", "setting": "[2]; listed as Reference example 16", "result": "lowering the amount of the glycerol production"}]}
{"smiles": "O=C(O)CCc1ccc(OCc2cc(OCC(=O)O)cc(Oc3ccccc3)c2)c(F)c1", "note": "[Example 129, 3-(4-{[3-(carboxymethoxy)-5-phenoxybenzyl]oxy}-3-fluorophenyl)propanoic acid]", "values": [{"measurement": "melting point", "result": "122 to 124", "unit": "°C"}]}
{"smiles": "CCCCC/C=C\\C/C=C\\C/C=C\\C/C=C\\CCCC(=O)O", "note": "[arachidonic acid]", "values": [{"measurement": "response (increase in the intracellular calcium concentration)", "setting": "[3]", "result": "specifically responsed"}, {"measurement": "response (increase in the intracellular calcium concentration)", "setting": "[4]", "result": "specifically responsed"}]}
{"smiles": "CCCC(=O)O", "note": "[butyric acid]", "values": [{"measurement": "suppression of CRF-induced ACTH secretion", "setting": "[5]", "result": "did not exhibit significant inhibition"}]}
{"smiles": "CCCCCC/C=C\\CCCCCCCC(=O)O", "note": "[palmitoleic acid]", "values": [{"measurement": "response (increase in the intracellular calcium concentration)", "setting": "[3]", "result": "specifically responsed"}, {"measurement": "response (increase in the intracellular calcium concentration)", "setting": "[4]", "result": "specifically responsed"}]}
{"smiles": "CC/C=C\\C/C=C\\C/C=C\\CCCCCCCC(=O)O", "note": "[α-linolenic acid]", "values": [{"measurement": "suppression of CRF-induced ACTH secretion", "setting": "[5]", "result": "significant suppression"}]}
{"smiles": "CCCCC/C=C\\C/C=C\\C/C=C\\CCCCC(=O)O", "note": "[γ-linolenic acid]", "values": [{"measurement": "suppression of CRF-induced ACTH secretion", "setting": "[5]", "result": "significant suppression"}, {"measurement": "response (increase in the intracellular calcium concentration)", "setting": "[3]", "result": "specifically responsed"}, {"measurement": "response (increase in the intracellular calcium concentration)", "setting": "[4]", "result": "specifically responsed"}]}
{"smiles": "O=C(O)CCc1ccc(OCc2cccc(Oc3ccc(Cl)cc3)c2)c(F)c1", "note": "[Example 163, 3-(3-fluoro-4-{[3-(4-chlorophenoxy)benzyl]oxy}phenyl)propanoic acid]", "values": [{"measurement": "EC50", "setting": "[1]", "result": "≤ 10", "unit": "µM"}]}
{"smiles": "O=C(O)CCc1ccc(OCc2cccc3c2OCO3)c(F)c1", "note": "[Example 102, 3-[4-(1,3-benzodioxol-4-ylmethoxy)-3-fluorophenyl]propanoic acid]", "values": [{"measurement": "EC50", "setting": "[1]", "result": "≤ 10", "unit": "µM"}]}
{"smiles": "COc1cc(COc2ccc(CCC(=O)O)cc2F)cc(OC)c1", "note": "[Example 94, 3-{4-[(3,5-dimethoxybenzyl)oxy]-3-fluorophenyl}propanoic acid]", "values": [{"measurement": "EC50", "setting": "[1]", "result": "≤ 10", "unit": "µM"}]}
{"smiles": "CC(C)Oc1cc(COc2ccc(CCC(=O)O)cc2F)cc(Oc2ccccc2)c1", "note": "[Example 124, 3-{3-fluoro-4-[(3-isopropoxy-5-phenoxybenzyl)oxy]phenyl}propanoic acid]", "values": [{"measurement": "EC50", "setting": "[1]", "result": "≤ 10", "unit": "µM"}]}
{"smiles": "O=C(O)CCc1ccc(OCc2cccc(Oc3ccccc3)c2)cc1", "note": "[Reference Example 8, 4-[(3-Phenoxyphenyl)methoxy]benzenepropanoic acid]", "values": [{"measurement": "EC50", "setting": "[1]", "result": "≤ 10", "unit": "µM"}]}
{"smiles": "Cl.NCCOc1cc(COc2ccc(CCC(=O)O)cc2F)cc(Oc2ccccc2)c1", "values": [{"measurement": "melting point", "result": "182 to 183", "unit": "°C"}]}
{"smiles": "CCOc1cccc(COc2ccc(CCC(=O)O)cc2C)c1", "note": "[Example 180, 3-{4-[(3-ethoxybenzyl)oxy]-3-methylphenyl}propanoic acid]", "values": [{"measurement": "EC50", "setting": "[1]", "result": "≤ 10", "unit": "µM"}]}
{"smiles": "O=C(O)CCc1cc(F)c(OCc2cccc(Oc3ccc(Cl)cc3)c2)c(F)c1", "note": "[Example 48, 3-(4-{[3-(4-chlorophenoxy)benzyl]oxy}-3,5-difluorophenyl)propanoic acid]", "values": [{"measurement": "EC50", "setting": "[1]", "result": "≤ 10", "unit": "µM"}]}
{"smiles": "O=C(O)CCc1cc(F)c(OCc2ccccc2-c2ccccc2)c(F)c1", "note": "[Example 20, 4-([1,1′-Biphenyl]-2-ylmethoxy)-3,5-difluorobenzenepropanoic acid]", "values": [{"measurement": "EC50", "setting": "[1]", "result": "≤ 10", "unit": "µM"}]}
{"smiles": "CC1(C)Cc2ccccc2C1Oc1ccc(CCC(=O)O)cc1", "note": "(centres unmarked) [Reference Example 25, 4-[(2,3-Dihydro-2,2-dimethyl-1H-inden-1-yl)oxy]benzenepropanoic acid]", "values": [{"measurement": "EC50", "setting": "[1]", "result": "≤ 10", "unit": "µM"}]}
{"smiles": "O=C(O)CCc1ccc(OCc2cccc(OCC(=O)O)c2)c(F)c1", "note": "[Example 107, 3-(4-{[3-(carboxymethoxy)benzyl]oxy}-3-fluorophenyl)propanoic acid]", "values": [{"measurement": "melting point", "result": "150 to 151", "unit": "°C"}]}
{"smiles": "CCCCC/C=C\\C/C=C\\CCCCCCCC(=O)O", "note": "[linoleic acid]", "values": [{"measurement": "response (increase in the intracellular calcium concentration)", "setting": "[3]", "result": "specifically responsed"}, {"measurement": "response (increase in the intracellular calcium concentration)", "setting": "[4]", "result": "specifically responsed"}]}
